From patent publication US7449558B2, “Site-specific labelling of proteins” (National University of Singapore, priority 2003, dated 2008) come the findings set out here.

For one data set, the system named is HEK293 cells. Briefly: Cell toxicity in HEK293 cells during labelling. It counts as cell-based. Particulars: 100 μM, 24 h. On the procedure: Briefly, HEK293 cells grown in DMEM+10% FBS media at 37° C. with 5% CO2 were transiently transfected with pT-Rex-DEST30-intein-EGFP-NLS or pT-Rex-DEST30-intein-ECFP-NLS using Polyfect™ (Qiagen, USA). See FIGS. 12ii. and iii., respectively, for in vivo intein cleavage for the expressed EGFP and ECFP proteins expressed in HEK293 cells. After 36 hours of protein expression, cells were washed in 1×PBS and cystine-free DMEM (Sigma) was added. The biotin-thioester probe, probe 5, was added to a final concentration of 100 μM (10-100 μM also worked) and cells were incubated for another 24 h. […] Cells were harvested by centrifugation at 1000 rpm for 10 min and resuspended in 1×PBS. Washings were repeated at least 3 times, and cells were lysed in PBS using glass beads. Magnetic streptavidin beads (Promega, USA) were used to pull-down all biotinylated proteins in the cell lysate. Beads were washed twice in 1× PBS, then boiled in 1×SDS loading buffer and loaded onto a 12% SDS-PAGE. Western blotting was used to assess biotinylated proteins, as described above.

The next data set concerns the target T1, N-terminal cysteine GST (Schistosoma japonicum, UniProt P08515).
T1 construct: Ssp DnaB intein tag (pTWIN2) (N, cleaved yes); expressed in transfected cells; host or cells: E. coli ER2566 transformed with pTWIN2-GST
Briefly: In vivo time-course labelling of N-terminal cysteine GST in live bacterial cells. It counts as cell-based, E. coli. Particulars: cells expressing labelled GST, FIG. 15. As for the experimental part:
To generate in vivo proteins having N-terminal cysteine residues, bacterial cells expressing N-terminal cysteine-containing proteins EGFP and GST fused to the C-terminus of the Ssp DnaB mini-intein were induced to undergo self-cleavage, releasing the N-terminal cysteine protein, then incubated with the probes over a period of 24 h.
Briefly, the above bacterial constructs were transformed into the E. coli expression strain ER2566 (NEB) and grown in 100 mg/L ampicillin containing LB media at 37° C. […]
For the time-course labelling experiments, a small sample of cells was removed at each time interval, quenched with 0.01M cysteine, and lysed by boiling with SDS loading buffer. The resulting sample was analyzed directly on a 12% SDS-PAGE. Fluorescence labelling was visualized with a Typhoon™ fluorescence scanner (Amersham Biosciences). Biotinylated proteins were detected by western blotting (with anti-biotin-HRP) with the Enhanced ChemiLuminescent™ kit (Amersham).
Results are shown in FIG. 13, where i=cells labelled with probe 2 (FL), ii=cells labelled with probe 3 (TMR) and iii=cells labelled with probe 5 (biotin) (lanes 1-8 are samples taken at 0 min, 10 min, 30 min, 1 h, 3 h, 6 h, 12 h and 24 h, respectively). The results of the 24 hour time-course are quantified in FIG. 14 (FL=♦, TMR=▪ and BIOTIN=▴).

The target of another data set is N-terminal cysteine EGFP (Aequorea victoria, UniProt P42212, F64L/H231L/S65T). Particulars: labelled bacterial cells expressing EGFP, excitation 470±20 nm, emission 605±30 nm.
For data set [1], the system named is N-terminal cysteine ECFP-NLS. Briefly: Fluorescence microscopy / FRET of HEK293 cells expressing N-terminal cysteine ECFP-NLS. Particulars: HEK293 cells transfected with ECFP-NLS. Type of data set: cell-based. The text has this:
Intein-fused EGFP and ECFP (enhanced cyan fluorescent protein) were constructed, in which an extra N-terminal cysteine was introduced into both EGFP and ECFP, as described above. To facilitate evaluation of the labelling, as well as to assess whether the strategy targets proteins expressed in subcellular compartments of mammalian cells (e.g. nucleus), a nuclear localization sequence (NLS) was fused to ECFP, generating ECFP-NLS. The intein-fused EGFP gene was amplified from the above bacterial construct, while the ECFP gene with a nuclear localization sequence (ECFP-NLS) was amplified from pECFP-Nuc (Clontech, USA) and cloned first into the pTWIN1 vector. Using the GATEWAY™ cloning system (Invitrogen, USA), the intein-fused genes were cloned into the donor vector pDONR201, followed by recombination of the cloned genes into a mammalian expression vector pT-Rex-DEST30 (Invitrogen). All constructs were sequence verified. […]
Fluorescence microscopy experiments were also performed using HEK293 mammalian cells. […] The fluorescence images were obtained using the excitation and emission channels described above for the bacterial experiments.

Data set [2] has as its system control proteins without N-terminal cysteine (GST, Protease, Lipase, Papain, Pepsin). The experiment in a line: In vitro labelling of control proteins without an N-terminal cysteine (site-specificity). Type of data set: biochemical. Particulars: 5 control proteins with no or only internal cysteines, 60 min incubation. As for the experimental part:
Probes were prepared as 200 μM stocks (25× in DMSO) and stored at −20° C. In a typical labelling reaction, 6 μl of each probe (final concentration: 8 μM) was added to 50 μl of pure protein (1 mg/ml) dissolved in 1×PBS (final concentration of protein: ˜[…]), with or without 1 mM DTT, and the reaction was topped up with 1×PBS to a final volume of 150 μl. DTT was added to experiments, where live cells were used, to reduce background labelling. At specific time intervals, 15 μl of the reaction was withdrawn and quenched by addition of 1.7 μl of 100 mM cysteine to the reaction mixture (final concentration of cysteine: 10 mM), followed by denaturation with SDS-PAGE loading dye at 95° C. for 3 min. The loading dye also serves to hydrolyze the diacetate groups on probes 2 and 4, thereby releasing the fluorescence.
Probe 3 was used in the labelling reaction, and the reaction was performed as mentioned above with 60 min incubation time. All proteins are available from Sigma (St Louis, USA). (Lane 1. GST (cat #: G-4385); Lane 2. Protease (P-5380); Lane 3. Lipase (L-9031); Lane 4. Papain (P-4762); Lane 5. Pepsin (P-6887); Lane 6. BioRad Precision Plus Protein Standards).

Each structure is given as a SMILES string.

T1 sequence (P08515 whole entry, added parts left off): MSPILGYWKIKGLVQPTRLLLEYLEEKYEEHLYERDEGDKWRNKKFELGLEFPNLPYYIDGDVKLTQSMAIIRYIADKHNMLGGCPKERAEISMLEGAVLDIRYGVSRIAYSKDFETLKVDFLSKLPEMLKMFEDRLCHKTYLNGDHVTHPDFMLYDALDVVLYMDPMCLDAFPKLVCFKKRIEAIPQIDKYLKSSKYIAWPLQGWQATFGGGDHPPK
Procedure for N-terminal cysteine EGFP: The FRET channel for CFP/TMR pair was recorded using filters with an excitation: 436±20 nm and emission: 620±20 nm (Chroma). The FRET channel for GFP/TMR pair was using filters with excitation=470±20 nm and emission=605±30 nm (Zeiss).

Regarding `O=C(CCCCC1SCC2NC(=O)NC21)NCC(=O)SCc1ccccc1` (stereo not drawn) [Probe 5, [5-(2-oxo-hexahydro-thieno[3,4-d]imidazol-6-yl)-pentanoylamino]-thioacetic acid S-benzyl ester], the cell toxicity result in the data set on HEK293 cells is on record as “No cell toxicity was observed”.
On to `O=C(CNC(=O)c1ccc(C2=C3C=CC(O)C=C3Oc3cc(O)ccc32)c(C(=O)O)c1)SCc1ccccc1` (stereo not drawn) [Probe 2, N-benzylsulfanylcarbonylmethyl-6-(3,6-dihydroxy-3H-xanthen-9-yl)-isophthalamic acid], for which the “specificity of labelling inside the live cell (SDS-PAGE)” value on N-terminal cysteine GST is listed as “only the desired protein was labelled specifically, as well as covalently, inside the live cell, with little or no background observed”.
Regarding `CN(C)c1ccc2c(c1)Oc1cc(N(C)C)ccc1C21OC(=O)c2cc(C(=O)NCC(=O)SCc3ccccc3)ccc21` [Probe 3, amino thioacetic acid S-benzyl ester of 5-carboxy-tetramethylrhodamine], the FRET signal entry is on record as “a clear FRET signal was observed” on N-terminal cysteine EGFP and “clear FRET signal in the nucleus of the labelled cells” in data set [1] (excitation 436±10 nm, emission 620±30 nm). In addition, the localization of labelling result in data set [1] (100 μM probe, 24 h) is on record as “the majority of the labelling occurred inside the nucleus”. Moreover, the site-specificity of labelling entry in data set [2] was “labelling occurred ONLY with proteins possessing an N-terminal cysteine”.
